Measured values reported in the supplement of paper PMC11208160.

Assay: recombinant UMI read abundance after kanamycin selection (control-corrected) (log10(CPM+1)); higher = more efficient recombination; extreme values may be limits of the assay; sequences stand for … in AGTGCAGAGAAAATCGGCCAGTTTTCTCTGCCTGCAGTCCGCATGCCGTGGGACCCCTTGGGTTCTAACCTGTTGCCTAGATTTATGCAGCGGACTGCCTTTCTCCCAAAGTGATAAACCGG…AGGTTGGTTTCACT; site = the 11-nt donor
Experimental: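 Pooled E. coli donor-specificity screen for the IS621 bridge recombinase. Each library member carries a reprogrammed 11-nt donor and a full-length LE bridge RNA expressed in cis from the natural promoter, with a paired donor-binding loop (8-nt LDG + 4-nt RDG) and a target-binding loop fixed to T5. It is co-electroporated with a T5 target plasmid; recombinase is induced with 0.07 mM IPTG and recombinants are selected on kanamycin. UMIs are counted as CPM, averaged over two biological replicates and corrected by the unselected control. Molecule = full bridge RNA written as DNA, built from the T5 scaffold: LDG = donor specificity nt 1-8, RDG = reverse complement of nt 8-11.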
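Note: IS621 bridge recombinase in Escherichia coli cells against a fixed T5 target plasmid.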

| Sequence | recombinant UMI read abundance (log10) |
| --- | --- |
| ACGCATCCATGGACCGGTTTTCCCGGTAATCCGTATTTGAC (site ACTCATCCTGT) | 0 |
| ACGCCCTCATGGACCGGTTTTCCCGGTAATCCGTATTTGGG (site ACGCCCTCTCC) | 0.119 |
| ACGCGCCCATGGACCGGTTTTCCCGGTAATCCGTATTTGGT (site ACGCGCCCTAC) | 0.771 |
| ACGCGGACATGGACCGGTTTTCCCGGTAATCCGTATTTGCA (site ACGCGGACTTG) | 2.76 |
| ACGCGGCCATGGACCGGTTTTCCCGGTAATCCGTATTTGCA (site ACGCGGCCTTG) | 1.1 |
| ACGCGTTCATGGACCGGTTTTCCCGGTAATCCGTATTTGCG (site ACGCGTTCTCG) | 1.8 |
| ACGGCATCATGGACCGGTTTTCCCGGTAATCCGTATTTGCA (site ACAGTATCTTG) | 1.47 |
| ACGGCATCATGGACCGGTTTTCCCGGTAATCCGTATTTGCA (site ACGGCATCTTG) | 1.77 |
| ACGGCTACATGGACCGGTTTTCCCGGTAATCCGTATTTGAC (site ACGGCTACTGT) | 2.45 |
| ACGGGACCATGGACCGGTTTTCCCGGTAATCCGTATTTGTA (site ACGGGACCTTA) | 0.00398 |
| ACGGGCACATGGACCGGTTTTCCCGGTAATCCGTATTTGGT (site ACGGGCACTAC) | 0.805 |
| ACGGTATCATGGACCGGTTTTCCCGGTAATCCGTATTTGCG (site ACAGTATCTTG) | 2.27 |
| ACGGTATCATGGACCGGTTTTCCCGGTAATCCGTATTTGCG (site ACGGTATCTCG) | 3.15 |
| ACGGTATCATGGACCGGTTTTCCCGGTAATCCGTATTTGGG (site ACGGTATCTCC) | 1.62 |
| ACGGTATCATGGACCGGTTTTCCCGGTAATCCGTATTTGTA (site ACAGTATCTTG) | 2.09 |
| ACGGTATCATGGACCGGTTTTCCCGGTAATCCGTATTTGTA (site ACGGTATCTTA) | 3.09 |
| ACGGTCACATGGACCGGTTTTCCCGGTAATCCGTATTTGTA (site ACGGTCACTTA) | 1.59 |
| ACGGTTTCATGGACCGGTTTTCCCGGTAATCCGTATTTGTG (site ACGGTTTCTCA) | 2.4 |
| ACGTACTCATGGACCGGTTTTCCCGGTAATCCGTATTTGGA (site ACGTACTCTTC) | 2.95 |
| ACGTAGGCATGGACCGGTTTTCCCGGTAATCCGTATTTGAA (site ACGTAGGCTTT) | 1.96 |
| ACGTAGGCATGGACCGGTTTTCCCGGTAATCCGTATTTGGC (site AAGTAGGCTGC) | 1.32 |
| ACGTAGGCATGGACCGGTTTTCCCGGTAATCCGTATTTGGC (site ACGTAGGCTGC) | 2.6 |
| ACGTAGGCATGGACCGGTTTTCCCGGTAATCCGTATTTGGC (site AGGTAGGCTGC) | 1.06 |
| ACGTAGGCATGGACCGGTTTTCCCGGTAATCCGTATTTGGC (site ATGTAGGCTGC) | 1.21 |

| Sequence | recombinant UMI read abundance (log10) |
| --- | --- |
| ACGTGAGCATGGACCGGTTTTCCCGGTAATCCGTATTTGGA (site ACGTGAGCTTC) | 1.78 |
| ACGTTAGCATGGACCGGTTTTCCCGGTAATCCGTATTTGTG (site ACGTTAGCTCA) | 1.84 |
| ACGTTAGCATGGACCGGTTTTCCCGGTAATCCGTATTTGTG (site CCGTTAGCTCA) | 0.742 |
| ACGTTAGCATGGACCGGTTTTCCCGGTAATCCGTATTTGTG (site GCGTTAGCTCA) | 0.298 |
| ACGTTAGCATGGACCGGTTTTCCCGGTAATCCGTATTTGTG (site TCGTTAGCTCA) | 0.526 |
| ACGTTCACATGGACCGGTTTTCCCGGTAATCCGTATTTGCC (site ACGTTCACTGG) | 2.69 |
| ACGTTGCCATGGACCGGTTTTCCCGGTAATCCGTATTTGTT (site ACGTTGCCTAA) | 0.363 |
| ACTAAAACATGGACCGGTTTTCCCGGTAATCCGTATTTGAG (site ACTAAAACTCT) | 1.77 |
| ACTAAAACATGGACCGGTTTTCCCGGTAATCCGTATTTGAG (site ACTACAACTCT) | 0.0124 |
| ACTAAAACATGGACCGGTTTTCCCGGTAATCCGTATTTGAG (site ACTAGAACTCT) | 0.267 |
| ACTAAAACATGGACCGGTTTTCCCGGTAATCCGTATTTGAG (site ACTATAACTCT) | 0.376 |
| ACTAAAGCATGGACCGGTTTTCCCGGTAATCCGTATTTGAT (site ACTAAAGCTAT) | 2.22 |
| ACTAAAGCATGGACCGGTTTTCCCGGTAATCCGTATTTGAT (site CCTAAAGCTAT) | 0 |
| ACTAAAGCATGGACCGGTTTTCCCGGTAATCCGTATTTGAT (site GCTAAAGCTAT) | 0.0031 |
| ACTAAAGCATGGACCGGTTTTCCCGGTAATCCGTATTTGAT (site TCTAAAGCTAT) | 0.855 |
| ACTACACCATGGACCGGTTTTCCCGGTAATCCGTATTTGGT (site ACTACACCTAC) | 0 |
| ACTACCTCATGGACCGGTTTTCCCGGTAATCCGTATTTGTT (site ACTACCTCTAA) | 1.19 |
| ACTACTGCATGGACCGGTTTTCCCGGTAATCCGTATTTGCC (site ACTACTGCTGG) | 1.54 |
| ACTACTGCATGGACCGGTTTTCCCGGTAATCCGTATTTGCC (site CCTACTGCTGG) | 1.45 |
| ACTACTGCATGGACCGGTTTTCCCGGTAATCCGTATTTGCC (site GCTACTGCTGG) | 0.946 |
| ACTACTGCATGGACCGGTTTTCCCGGTAATCCGTATTTGCC (site TCTACTGCTGG) | 1.03 |
| ACTAGACCATGGACCGGTTTTCCCGGTAATCCGTATTTGAG (site ACTAGAACTCT) | 0.103 |
| ACTAGACCATGGACCGGTTTTCCCGGTAATCCGTATTTGAG (site ACTAGACCTCT) | 0.0176 |
| ACTAGACCATGGACCGGTTTTCCCGGTAATCCGTATTTGAG (site ACTAGAGCTCT) | 0.0203 |

| Sequence | recombinant UMI read abundance (log10) |
| --- | --- |
| ACTAGACCATGGACCGGTTTTCCCGGTAATCCGTATTTGAG (site ACTAGATCTCT) | 1.02 |
| ACTAGAGCATGGACCGGTTTTCCCGGTAATCCGTATTTGGT (site ACTAGAGCTAC) | 1.72 |
| ACTAGAGCATGGACCGGTTTTCCCGGTAATCCGTATTTGGT (site ACTAGCGCTAC) | 0.398 |
| ACTAGAGCATGGACCGGTTTTCCCGGTAATCCGTATTTGGT (site ACTAGGGCTAC) | 0.647 |
| ACTAGAGCATGGACCGGTTTTCCCGGTAATCCGTATTTGGT (site ACTAGTGCTAC) | 0.4 |
| ACTAGTACATGGACCGGTTTTCCCGGTAATCCGTATTTGAC (site ACTAGTACTGT) | 2.14 |
| ACTAGTCCATGGACCGGTTTTCCCGGTAATCCGTATTTGGT (site ACTAGTACTAC) | 0.0112 |
| ACTAGTCCATGGACCGGTTTTCCCGGTAATCCGTATTTGGT (site ACTAGTCCTAC) | 0.00473 |
| ACTAGTCCATGGACCGGTTTTCCCGGTAATCCGTATTTGGT (site ACTAGTGCTAC) | 0.00689 |
| ACTAGTCCATGGACCGGTTTTCCCGGTAATCCGTATTTGGT (site ACTAGTTCTAC) | 0.244 |
| ACTAGTGCATGGACCGGTTTTCCCGGTAATCCGTATTTGGC (site ACTAGTGCTAC) | 0.0845 |
| ACTAGTGCATGGACCGGTTTTCCCGGTAATCCGTATTTGGC (site ACTAGTGCTCC) | 0.0166 |
| ACTAGTGCATGGACCGGTTTTCCCGGTAATCCGTATTTGGC (site ACTAGTGCTGC) | 2.6 |
| ACTAGTGCATGGACCGGTTTTCCCGGTAATCCGTATTTGGC (site ACTAGTGCTTC) | 0.32 |
| ACTAGTGCATGGACCGGTTTTCCCGGTAATCCGTATTTGGT (site AATAGTGCTAC) | 0.282 |
| ACTAGTGCATGGACCGGTTTTCCCGGTAATCCGTATTTGGT (site ACAAGTGCTAC) | 0.762 |
| ACTAGTGCATGGACCGGTTTTCCCGGTAATCCGTATTTGGT (site ACCAGTGCTAC) | 1.02 |
| ACTAGTGCATGGACCGGTTTTCCCGGTAATCCGTATTTGGT (site ACGAGTGCTAC) | 0.586 |
| ACTAGTGCATGGACCGGTTTTCCCGGTAATCCGTATTTGGT (site ACTAATGCTAC) | 0.409 |
| ACTAGTGCATGGACCGGTTTTCCCGGTAATCCGTATTTGGT (site ACTACTGCTAC) | 0.285 |
| ACTAGTGCATGGACCGGTTTTCCCGGTAATCCGTATTTGGT (site ACTAGAGCTAC) | 1.08 |
| ACTAGTGCATGGACCGGTTTTCCCGGTAATCCGTATTTGGT (site ACTAGCGCTAC) | 0.00815 |
| ACTAGTGCATGGACCGGTTTTCCCGGTAATCCGTATTTGGT (site ACTAGGGCTAC) | 0.0226 |
| ACTAGTGCATGGACCGGTTTTCCCGGTAATCCGTATTTGGT (site ACTAGTACTAC) | 0.998 |
